For 30 compounds, IC50 results are on record in patent US9676714B2, “Sulfonylindole derivatives and method for preparing the same” (Daewoong Pharmaceutical Co., Ltd., priority 2013, dated 2017).

Each structure is given as a SMILES string. Structures can show the parent of a compound that is named as a salt.

What is called IC50 is the concentration needed to halve the response being measured.

For the assay, the target named is T1, proton pump (H+/K+-ATPase) (Sus scrofa, UniProt P19156).
T1 construct: Gastric vesicles were prepared from hog stomach via centrifugal separation; from tissue; host or cells: hog stomach (gastric vesicles, method of Rabon et al. 1988)
T1 sequence (P19156 whole entry): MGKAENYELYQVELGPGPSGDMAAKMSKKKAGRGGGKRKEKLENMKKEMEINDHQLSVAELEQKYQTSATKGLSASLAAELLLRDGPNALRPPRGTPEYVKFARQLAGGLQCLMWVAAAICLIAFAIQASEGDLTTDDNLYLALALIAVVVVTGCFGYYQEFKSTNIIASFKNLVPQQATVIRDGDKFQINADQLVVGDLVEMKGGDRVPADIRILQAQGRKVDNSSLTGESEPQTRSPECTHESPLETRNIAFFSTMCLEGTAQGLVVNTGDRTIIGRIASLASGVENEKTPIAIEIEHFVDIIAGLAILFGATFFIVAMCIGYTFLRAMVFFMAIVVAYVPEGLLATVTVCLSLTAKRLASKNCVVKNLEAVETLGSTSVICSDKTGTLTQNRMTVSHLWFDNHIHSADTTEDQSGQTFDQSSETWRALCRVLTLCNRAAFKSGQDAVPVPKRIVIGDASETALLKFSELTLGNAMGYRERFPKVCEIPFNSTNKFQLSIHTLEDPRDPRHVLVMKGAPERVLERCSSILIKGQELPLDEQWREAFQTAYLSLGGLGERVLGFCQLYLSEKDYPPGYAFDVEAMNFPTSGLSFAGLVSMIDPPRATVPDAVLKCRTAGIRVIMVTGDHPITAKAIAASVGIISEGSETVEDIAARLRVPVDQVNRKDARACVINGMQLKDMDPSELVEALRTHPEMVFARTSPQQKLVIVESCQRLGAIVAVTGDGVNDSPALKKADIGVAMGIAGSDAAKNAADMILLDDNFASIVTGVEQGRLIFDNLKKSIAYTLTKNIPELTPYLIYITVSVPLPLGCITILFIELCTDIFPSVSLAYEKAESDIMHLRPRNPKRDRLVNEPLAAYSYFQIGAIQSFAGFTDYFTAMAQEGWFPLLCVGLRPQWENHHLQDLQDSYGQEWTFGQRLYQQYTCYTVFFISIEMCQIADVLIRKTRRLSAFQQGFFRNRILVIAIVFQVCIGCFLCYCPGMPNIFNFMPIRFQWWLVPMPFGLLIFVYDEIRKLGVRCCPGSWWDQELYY
T1 sequence (P18434 whole entry partner): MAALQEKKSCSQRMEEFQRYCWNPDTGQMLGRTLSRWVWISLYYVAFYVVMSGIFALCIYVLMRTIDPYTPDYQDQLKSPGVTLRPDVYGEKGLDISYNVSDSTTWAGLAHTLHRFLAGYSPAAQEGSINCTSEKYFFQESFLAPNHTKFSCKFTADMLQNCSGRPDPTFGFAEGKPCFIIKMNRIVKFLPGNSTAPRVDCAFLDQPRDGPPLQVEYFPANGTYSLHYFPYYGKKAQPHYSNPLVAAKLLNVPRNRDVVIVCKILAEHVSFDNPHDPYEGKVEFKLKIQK
Briefly: Measurement of inhibitory effects on proton pump (H+/K+-ATPase) activities. The class given is biochemical. The note with it: hog gastric vesicles, K+-specific H+/K+-ATPase activity, Tris-HCl buffer pH 7.4, 37° C. for 40 minutes, malachite green Pi readout. As to the method:
1) Preparation of Gastric Vesicles
Gastric vesicles were prepared from hog stomach via centrifugal separation (Edd C. Rabon et al., Preparation of Gastric H^+,K^+-ATPase, Methods in enzymology, vol. 157 Academic Press Inc., (1988), pp. 649-654). The protein contents of the thus prepared gastric vesicles were quantitated by Bicinchoninic Acid (BCA) kit.
2) Measurement of Inhibitory Effects on Proton Pump (H^+/K^+-ATPase) Activities
The inhibitory effects of the compounds of the present invention against proton pump activities were measured using a 96-well plate. In this assay, the K^+-specific H^+/K^+-ATPase activities were calculated based on the difference between the H^+/K^+-ATPase activity in the presence of K^+ and that in the absence of K. In the 96-well plate, 0.5% dimethyl sulfoxide (DMSO) in buffer was added to the negative and positive control groups, and the diluted compounds of the present invention were added to the test groups. All assays were performed in a reaction volume of 100 μl at room temperature. The reaction buffer solution (60 mmol/l Tris-HCl buffer, pH 7.4) including the hog gastric vesicles was added with DMSO and the compounds at various concentrations, and then further added with 10 μl of 10 mmol/1 adenosine triphosphate Tris buffer solution (60 mmol/l Tris-HCl buffer, pH 7.4) to initiate an enzyme reaction. […] The amount of monophosphate (Pi) in the reaction was measured at 570 nm using a micro plate reader (FLUOstar Omega, BMG LABTECH). The inhibition rates (%) were determined from the activity values of control groups and those of test compounds at various concentrations, and the […] of the test compounds were calculated based on the respective inhibition value (%) using the Logistic 4-parameter function of Sigmaplot 8.0 program.
`CNCc1cn(S(=O)(=O)c2cccnc2)c2cc(Nc3ccccc3)ccc12` [Example 2, 3-((methylamino)methyl)-N-phenyl-1-(pyridin-3-ylsulfonyl)-1H-indol-6-amine hydrochloride]: the half-maximal inhibitory concentration (IC50) stood at 1150 nM.

In the case of `CNCc1cn(S(=O)(=O)c2cccnc2)c2cc(Nc3ccccc3F)ccc12` [Example 3, N-(2-fluorophenyl)-3-((methylamino)methyl)-1-(pyridin-3-ylsulfonyl)-1H-indol-6-amine hydrochloride], the IC50 came to 250 nM.

`CNCc1cn(S(=O)(=O)c2cccnc2)c2cc(Nc3ccccc3Cl)ccc12` [Example 4, N-(2-chlorophenyl)-3-((methylamino)methyl)-1-(pyridin-3-ylsulfonyl)-1H-indol-6-amine hydrochloride]: the IC50 was found to be 60 nM.

As to `CNCc1cn(S(=O)(=O)c2cccnc2)c2cc(Nc3cccc(Br)c3)ccc12` [Example 5, N-(3-bromophenyl)-3-((methylamino)methyl)-1-(pyridin-3-ylsulfonyl)-1H-indol-6-amine hydrochloride], the 50% inhibitory concentration (IC50) worked out at 800 nM. Against the preceding compound, the IC50 is about 13-fold higher.

In turn, `CNCc1cn(S(=O)(=O)c2cccnc2)c2cc(Nc3cccc(F)c3)ccc12` [Example 6, N-(3-fluorophenyl)-3-((methylamino)methyl)-1-(pyridin-3-ylsulfonyl)-1H-indol-6-amine hydrochloride] returned an IC50 of 1180 nM. This IC50 and that of the compound before are within 1.5-fold of each other.

Compound `CNCc1cn(S(=O)(=O)c2cccnc2)c2cc(Nc3cccc(Cl)c3)ccc12` [Example 7, N-(3-chlorophenyl)-3-((methylamino)methyl)-1-(pyridin-3-ylsulfonyl)-1H-indol-6-amine hydrochloride] returned a 50% inhibitory concentration (IC50) of 590 nM.

Turning to `CCc1cccc(Nc2ccc3c(CNC)cn(S(=O)(=O)c4cccnc4)c3c2)c1` [Example 8, N-(3-ethylphenyl)-3-((methylamino)methyl)-1-(pyridin-3-ylsulfonyl)-1H-indol-6-amine hydrochloride], the IC50 was 170 nM.

`CNCc1cn(S(=O)(=O)c2cccnc2)c2cc(Nc3ccc(F)cc3)ccc12` [Example 9, N-(4-fluorophenyl)-3-((methylamino)methyl)-1-(pyridin-3-ylsulfonyl)-1H-indol-6-amine hydrochloride] displayed an IC50 of 1050 nM.

For `CNCc1cn(S(=O)(=O)c2cccnc2)c2cc(Nc3ccc(C)cc3)ccc12` [Example 10, 3-((methylamino)methyl)-1-(pyridin-3-ylsulfonyl)-N-(p-tolyl)-1H-indol-6-amine hydrochloride], it took 200 nM to reach half-maximal inhibition (IC50).

Take `CNCc1cn(S(=O)(=O)c2cccnc2)c2cc(Nc3ccc(Cl)cc3)ccc12` [Example 11, N-(4-chlorophenyl)-3-((methylamino)methyl)-1-(pyridin-3-ylsulfonyl)-1H-indol-6-amine hydrochloride]: 1020 nM corresponded to half-maximal inhibition (IC50). This IC50 is about 5.1-fold higher than that of the compound before.

In turn, `CNCc1cn(S(=O)(=O)c2cccnc2)c2cc(Nc3ccc(OC)cc3)ccc12` [Example 12, N-(4-methoxyphenyl)-3-((methylamino)methyl)-1-(pyridin-3-ylsulfonyl)-1H-indol-6-amine hydrochloride] showed an IC50 of 420 nM.

The compound `CNCc1cn(S(=O)(=O)c2cccnc2)c2cc(Nc3ccc(C(F)(F)F)cc3)ccc12` [Example 13, 3-((methylamino)methyl)-1-(pyridin-3-ylsulfonyl)-N-(4-(trifluoromethyl)phenyl)-1H-indol-6-amine hydrochloride] registered an IC50 of 1080 nM.

Consider `CNCc1cn(S(=O)(=O)c2cccnc2)c2cc(Nc3ccc(C(C)(C)C)cc3)ccc12` [Example 14, N-(4-(tert-butyl)phenyl)-3-((methylamino)methyl)-1-(pyridin-3-ylsulfonyl)-1H-indol-6-amine hydrochloride], for which the IC50 stood at 1500 nM. This IC50 and that of the compound before are within 1.5-fold of each other.

`CNCc1cn(S(=O)(=O)c2cccnc2)c2cc(Nc3ccc(-c4cccc(OC)c4)cc3)ccc12` [Example 15, N-(3′-methoxy-[1,1′-biphenyl]-4-yl)-3-((methylamino)methyl)-1-(pyridin-3-ylsulfonyl)-1H-indol-6-amine hydrochloride] came in with a half-maximal inhibitory concentration (IC50) of 1850 nM. The IC50 values of the last two compounds are within 1.5-fold of each other.

`CNCc1cn(S(=O)(=O)c2cccnc2)c2cc(Nc3cc(-c4ccccc4)ccc3C)ccc12` [Example 16, N-(4-methyl-[1,1′-biphenyl]-3-yl)-3-((methylamino)methyl)-1-(pyridin-3-ylsulfonyl)-1H-indol-6-amine hydrochloride] displayed an IC50 of 780 nM.

In turn, `CNCc1cn(S(=O)(=O)c2cccnc2)c2cc(Nc3ccc(Oc4ccccc4)cc3)ccc12` [Example 17, 3-((methylamino)methyl)-N-(4-phenoxyphenyl)-1-(pyridin-3-ylsulfonyl)-1H-indol-6-amine hydrochloride] displayed an IC50 of 2250 nM.

`CNCc1cn(S(=O)(=O)c2cccnc2)c2cc(Nc3ccc(Oc4ccc(F)cc4)cc3)ccc12` [Example 18, N-(4-(4-fluorophenoxy)phenyl)-3-((methylamino)methyl)-1-(pyridin-3-ylsulfonyl)-1H-indol-6-amine hydrochloride] displayed an IC50 of 1300 nM. This IC50 lies about 1.7-fold lower than the previous one.

Turning to `CNCc1cn(S(=O)(=O)c2cccnc2)c2cc(Nc3ccc(Oc4ccc(Cl)cc4)cc3)ccc12` [Example 19, N-(4-(4-chlorophenoxy)phenyl)-3-((methylamino)methyl)-1-(pyridin-3-ylsulfonyl)-1H-indol-6-amine hydrochloride], half-maximal inhibition (IC50) was put at 1910 nM.

Compound `CNCc1cn(S(=O)(=O)c2cccnc2)c2cc(Nc3cccc(C)c3F)ccc12` [Example 20, N-(2-fluoro-3-methylphenyl)-3-((methylamino)methyl)-1-(pyridin-3-ylsulfonyl)-1H-indol-6-amine hydrochloride] had an IC50 of 380 nM.

`CNCc1cn(S(=O)(=O)c2cccnc2)c2cc(Nc3ccc(C)cc3C)ccc12` [Example 21, N-(2,4-dimethylphenyl)-3-((methylamino)methyl)-1-(pyridin-3-ylsulfonyl)-1H-indol-6-amine hydrochloride]: the IC50 came to 210 nM.

`CNCc1cn(S(=O)(=O)c2cccnc2)c2cc(Nc3ccc(F)cc3C)ccc12` [Example 23, N-(4-fluoro-2-methylphenyl)-3-((methylamino)methyl)-1-(pyridin-3-ylsulfonyl)-1H-indol-6-amine hydrochloride] registered a half-maximal inhibitory concentration (IC50) of 220 nM.

With `CNCc1cn(S(=O)(=O)c2cccnc2)c2cc(Nc3ccc(F)cc3F)ccc12` [Example 24, N-(2,4-difluorophenyl)-3-((methylamino)methyl)-1-(pyridin-3-ylsulfonyl)-1H-indol-6-amine hydrochloride], the IC50 amounted to 560 nM.

With `CNCc1cn(S(=O)(=O)c2cccnc2)c2cc(Nc3ccc(F)cc3Cl)ccc12` [Example 25, N-(2-chloro-4-fluorophenyl)-3-((methylamino)methyl)-1-(pyridin-3-ylsulfonyl)-1H-indol-6-amine hydrochloride], the concentration for half-maximal inhibition (IC50) came out at 160 nM.

As for `CNCc1cn(S(=O)(=O)c2cccnc2)c2cc(Nc3ccc(F)cc3C(F)(F)F)ccc12` [Example 26, N-(4-fluoro-2-(trifluoromethyl)phenyl)-3-((methylamino)methyl)-1-(pyridin-3-ylsulfonyl)-1H-indol-6-amine hydrochloride], it took 180 nM to reach half-maximal inhibition (IC50).

Consider `CNCc1cn(S(=O)(=O)c2cccnc2)c2cc(Nc3ccc(Cl)cc3C)ccc12` [Example 27, N-(4-chloro-2-methylphenyl)-3-((methylamino)methyl)-1-(pyridin-3-ylsulfonyl)-1H-indol-6-amine hydrochloride], for which the 50% inhibitory concentration (IC50) came to 420 nM.

The compound `CNCc1cn(S(=O)(=O)c2cccnc2)c2cc(Nc3ccc(Cl)cc3C#N)ccc12` [Example 30, 5-chloro-2-((3-((methylamino)methyl)-1-(pyridin-3-ylsulfonyl)-1H-indol-6-yl)amino)benzonitrile hydrochloride] returned an IC50 of 1140 nM.

On to `CNCc1cn(S(=O)(=O)c2cccnc2)c2cc(Nc3ccc(C(F)(F)F)cc3C)ccc12` [Example 32, N-(2-methyl-4-(trifluoromethyl)phenyl)-3-((methylamino)methyl)-1-(pyridin-3-ylsulfonyl)-1H-indol-6-amine hydrochloride], for which the half-maximal inhibitory concentration (IC50) stood at 810 nM.

For `CNCc1cn(S(=O)(=O)c2cccnc2)c2cc(Nc3ccc(C(F)(F)F)cc3F)ccc12` [Example 33, N-(2-fluoro-4-(trifluoromethyl)phenyl)-3-((methylamino)methyl)-1-(pyridin-3-ylsulfonyl)-1H-indol-6-amine hydrochloride], the IC50 came to 1360 nM. This IC50 is about 1.7-fold higher than that of the compound before.

On to `CNCc1cn(S(=O)(=O)c2cccnc2)c2cc(Nc3ccc(C(F)(F)F)cc3C(F)(F)F)ccc12` [Example 35, N-(2,4-Bis(trifluoromethyl)phenyl)-3-((methylamino)methyl)-1-(pyridin-3-ylsulfonyl)-1H-indol-6-amine hydrochloride], for which the IC50 was 1630 nM.

`CNCc1cn(S(=O)(=O)c2cccnc2)c2cc(Nc3ccc(C#N)cc3C)ccc12` [Example 36, 3-methyl-4-((3-((methylamino)methyl)-1-(pyridin-3-ylsulfonyl)-1H-indol-6-yl)amino)benzonitrile hydrochloride]: the midpoint of inhibition, the IC50, lay at 340 nM.
